Active and inactive are the calls of the source. The rule behind the calls is not given here.
Assays:
[1] = biological target: T1, Inhibitor of nuclear factor kappa-B kinase subunit epsilon (Homo sapiens) (UniProt Q14164); experiment: Inhibition of IKKepsilon at 1 uM
T1 sequence (whole entry): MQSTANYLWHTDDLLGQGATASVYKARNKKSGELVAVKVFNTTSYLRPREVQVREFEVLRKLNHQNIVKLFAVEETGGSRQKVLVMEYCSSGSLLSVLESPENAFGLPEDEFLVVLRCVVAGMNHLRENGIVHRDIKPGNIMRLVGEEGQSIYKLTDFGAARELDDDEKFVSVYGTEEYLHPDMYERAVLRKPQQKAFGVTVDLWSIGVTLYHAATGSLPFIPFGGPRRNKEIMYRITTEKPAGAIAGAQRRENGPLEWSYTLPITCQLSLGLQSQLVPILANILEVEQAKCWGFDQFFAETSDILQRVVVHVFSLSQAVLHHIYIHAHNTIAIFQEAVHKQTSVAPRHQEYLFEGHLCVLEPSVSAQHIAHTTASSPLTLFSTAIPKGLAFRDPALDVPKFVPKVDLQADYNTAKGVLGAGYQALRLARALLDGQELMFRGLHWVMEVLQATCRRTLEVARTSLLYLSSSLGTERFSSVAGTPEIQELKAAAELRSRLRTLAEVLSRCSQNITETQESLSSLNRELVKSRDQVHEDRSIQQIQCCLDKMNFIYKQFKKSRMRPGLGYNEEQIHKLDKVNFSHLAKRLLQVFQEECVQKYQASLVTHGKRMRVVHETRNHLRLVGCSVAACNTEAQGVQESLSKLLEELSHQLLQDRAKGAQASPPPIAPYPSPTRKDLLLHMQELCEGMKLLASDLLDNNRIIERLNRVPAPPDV

[2] = biological target: Epidermal growth factor receptor (Homo sapiens) (UniProt P00533); experiment: Inhibition of EGFR at 1 uM
[3] = biological target: T2, Ephrin type-A receptor 1 (Homo sapiens) (UniProt P21709); experiment: Inhibition of EPHA1 at 1 uM
T2 sequence (whole entry): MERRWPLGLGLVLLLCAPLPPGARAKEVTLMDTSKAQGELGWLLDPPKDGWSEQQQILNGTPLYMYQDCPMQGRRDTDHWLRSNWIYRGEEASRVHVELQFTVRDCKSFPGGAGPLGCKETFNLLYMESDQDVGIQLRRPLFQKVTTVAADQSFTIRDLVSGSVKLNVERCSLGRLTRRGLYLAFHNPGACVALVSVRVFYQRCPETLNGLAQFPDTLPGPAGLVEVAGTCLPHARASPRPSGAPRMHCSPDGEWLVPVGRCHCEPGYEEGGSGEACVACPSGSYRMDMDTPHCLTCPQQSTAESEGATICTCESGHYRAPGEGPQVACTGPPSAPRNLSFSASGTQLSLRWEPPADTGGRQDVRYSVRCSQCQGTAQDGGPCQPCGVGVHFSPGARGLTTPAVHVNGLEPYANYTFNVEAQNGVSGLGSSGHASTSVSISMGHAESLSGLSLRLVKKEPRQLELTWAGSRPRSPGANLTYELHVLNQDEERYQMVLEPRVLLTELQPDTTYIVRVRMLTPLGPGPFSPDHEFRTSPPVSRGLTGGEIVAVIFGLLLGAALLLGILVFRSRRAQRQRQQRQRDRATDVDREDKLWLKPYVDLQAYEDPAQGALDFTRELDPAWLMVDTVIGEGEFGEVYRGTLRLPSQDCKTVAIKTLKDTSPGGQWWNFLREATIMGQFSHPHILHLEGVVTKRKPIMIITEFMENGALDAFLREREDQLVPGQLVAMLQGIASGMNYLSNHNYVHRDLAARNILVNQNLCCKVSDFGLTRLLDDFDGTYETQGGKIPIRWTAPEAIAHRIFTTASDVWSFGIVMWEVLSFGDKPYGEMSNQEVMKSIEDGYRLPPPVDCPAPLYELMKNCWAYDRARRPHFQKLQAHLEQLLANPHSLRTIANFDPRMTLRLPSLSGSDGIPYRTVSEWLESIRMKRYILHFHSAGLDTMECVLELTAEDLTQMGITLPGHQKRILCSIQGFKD

[4] = biological target: Platelet-derived growth factor receptor beta (Homo sapiens) (UniProt P09619); experiment: Inhibition of PDGFRbeta at 1 uM
[5] = biological target: Serine/threonine-protein kinase PAK 1 (Homo sapiens) (UniProt Q13153); experiment: Inhibition of PAK1 at 1 uM
[6] = biological target: T3, Aurora kinase A (Homo sapiens) (UniProt O14965); experiment: Inhibition of Aurora A at 1 uM
T3 sequence (whole entry): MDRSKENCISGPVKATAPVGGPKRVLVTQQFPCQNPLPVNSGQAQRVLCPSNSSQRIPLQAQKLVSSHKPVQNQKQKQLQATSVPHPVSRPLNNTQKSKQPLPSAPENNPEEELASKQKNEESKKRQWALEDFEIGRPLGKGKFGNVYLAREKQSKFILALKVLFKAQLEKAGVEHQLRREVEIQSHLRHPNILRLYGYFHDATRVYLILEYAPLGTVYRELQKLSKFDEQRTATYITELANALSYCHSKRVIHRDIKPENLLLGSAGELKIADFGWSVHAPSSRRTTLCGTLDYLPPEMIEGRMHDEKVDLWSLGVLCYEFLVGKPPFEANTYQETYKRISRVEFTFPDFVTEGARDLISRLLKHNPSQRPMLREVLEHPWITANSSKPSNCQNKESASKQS

[7] = biological target: Vascular endothelial growth factor receptor 2 (Homo sapiens) (UniProt P35968); experiment: Inhibition of VEGFR2 at 1 uM
Vascular endothelial growth factor receptor 2 (Homo sapiens), sequence (P35968 whole entry): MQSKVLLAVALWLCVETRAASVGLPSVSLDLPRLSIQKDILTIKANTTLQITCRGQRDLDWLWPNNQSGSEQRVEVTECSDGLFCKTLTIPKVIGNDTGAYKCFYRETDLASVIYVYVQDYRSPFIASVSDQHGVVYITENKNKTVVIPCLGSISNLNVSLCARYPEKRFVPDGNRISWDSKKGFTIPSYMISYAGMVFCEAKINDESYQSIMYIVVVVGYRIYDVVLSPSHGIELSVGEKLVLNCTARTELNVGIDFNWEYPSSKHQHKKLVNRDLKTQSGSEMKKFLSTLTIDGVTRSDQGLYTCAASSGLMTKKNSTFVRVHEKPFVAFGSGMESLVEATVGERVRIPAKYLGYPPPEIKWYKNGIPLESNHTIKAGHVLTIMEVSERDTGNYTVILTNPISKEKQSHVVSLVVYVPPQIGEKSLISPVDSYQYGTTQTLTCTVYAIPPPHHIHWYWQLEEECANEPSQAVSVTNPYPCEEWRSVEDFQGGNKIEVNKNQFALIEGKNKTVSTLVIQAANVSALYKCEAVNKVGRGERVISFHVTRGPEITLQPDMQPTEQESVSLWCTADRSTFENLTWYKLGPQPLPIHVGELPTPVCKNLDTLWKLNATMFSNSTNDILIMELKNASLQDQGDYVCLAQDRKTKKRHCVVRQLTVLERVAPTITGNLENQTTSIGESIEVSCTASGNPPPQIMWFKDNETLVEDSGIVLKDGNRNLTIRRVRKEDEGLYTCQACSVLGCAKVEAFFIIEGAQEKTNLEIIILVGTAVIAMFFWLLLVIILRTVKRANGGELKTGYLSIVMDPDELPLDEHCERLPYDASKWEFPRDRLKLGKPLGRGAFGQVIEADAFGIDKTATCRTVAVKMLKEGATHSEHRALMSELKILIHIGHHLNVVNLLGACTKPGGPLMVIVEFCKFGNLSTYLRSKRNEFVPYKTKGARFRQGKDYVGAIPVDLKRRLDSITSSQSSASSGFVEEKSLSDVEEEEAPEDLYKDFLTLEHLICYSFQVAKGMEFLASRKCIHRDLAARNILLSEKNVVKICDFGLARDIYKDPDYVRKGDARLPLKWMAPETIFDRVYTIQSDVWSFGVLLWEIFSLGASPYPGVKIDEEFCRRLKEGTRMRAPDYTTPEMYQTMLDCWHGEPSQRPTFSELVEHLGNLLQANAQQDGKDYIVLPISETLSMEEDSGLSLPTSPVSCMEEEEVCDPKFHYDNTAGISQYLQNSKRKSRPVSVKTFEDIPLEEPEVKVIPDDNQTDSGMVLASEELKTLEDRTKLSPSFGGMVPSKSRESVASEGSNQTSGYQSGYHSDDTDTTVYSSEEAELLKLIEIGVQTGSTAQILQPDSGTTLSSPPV

[8] = test system: MDA231; experiment: Inhibition of lipoxygenase in human MDA231 cells; format: cell-based
[9] = biological target: Receptor-type tyrosine-protein kinase FLT3 (Homo sapiens) (UniProt P36888); experiment: Inhibition of FLT3 at 1 uM
Receptor-type tyrosine-protein kinase FLT3 (Homo sapiens), sequence (P36888 whole entry): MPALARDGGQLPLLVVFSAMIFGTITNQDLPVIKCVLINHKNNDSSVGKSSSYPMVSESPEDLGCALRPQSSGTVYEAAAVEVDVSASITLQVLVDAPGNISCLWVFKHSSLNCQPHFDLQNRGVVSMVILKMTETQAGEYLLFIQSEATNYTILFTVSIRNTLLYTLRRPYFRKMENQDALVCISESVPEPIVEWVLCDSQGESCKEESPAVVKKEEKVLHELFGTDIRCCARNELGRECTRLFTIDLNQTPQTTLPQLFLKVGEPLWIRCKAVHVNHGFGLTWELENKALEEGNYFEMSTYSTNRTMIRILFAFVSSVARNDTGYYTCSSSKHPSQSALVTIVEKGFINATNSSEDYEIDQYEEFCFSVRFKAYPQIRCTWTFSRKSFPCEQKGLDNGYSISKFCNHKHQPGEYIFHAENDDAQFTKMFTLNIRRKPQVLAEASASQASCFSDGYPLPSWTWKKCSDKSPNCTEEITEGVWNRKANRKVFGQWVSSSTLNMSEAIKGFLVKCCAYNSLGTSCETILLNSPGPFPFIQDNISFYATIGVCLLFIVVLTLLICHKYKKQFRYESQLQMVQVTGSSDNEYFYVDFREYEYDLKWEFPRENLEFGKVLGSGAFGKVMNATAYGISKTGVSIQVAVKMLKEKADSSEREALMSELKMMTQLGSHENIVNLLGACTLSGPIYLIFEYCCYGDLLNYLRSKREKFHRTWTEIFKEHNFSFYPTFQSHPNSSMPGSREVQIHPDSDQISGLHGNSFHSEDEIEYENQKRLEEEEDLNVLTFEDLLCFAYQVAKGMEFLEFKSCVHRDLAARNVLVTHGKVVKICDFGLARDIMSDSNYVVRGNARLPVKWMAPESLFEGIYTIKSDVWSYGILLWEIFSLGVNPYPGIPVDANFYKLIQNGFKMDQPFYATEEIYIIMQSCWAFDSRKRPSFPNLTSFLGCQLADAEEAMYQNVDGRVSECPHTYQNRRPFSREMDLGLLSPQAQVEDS

[10] = biological target: Insulin-like growth factor 1 receptor (Homo sapiens) (UniProt P08069); experiment: Inhibition of IGF1R at 1 uM
[11] = biological target: BDNF/NT-3 growth factors receptor (Homo sapiens) (UniProt Q16620); experiment: Inhibition of TRKB at 1 uM
BDNF/NT-3 growth factors receptor (Homo sapiens), sequence (Q16620 32-822 limits assumed): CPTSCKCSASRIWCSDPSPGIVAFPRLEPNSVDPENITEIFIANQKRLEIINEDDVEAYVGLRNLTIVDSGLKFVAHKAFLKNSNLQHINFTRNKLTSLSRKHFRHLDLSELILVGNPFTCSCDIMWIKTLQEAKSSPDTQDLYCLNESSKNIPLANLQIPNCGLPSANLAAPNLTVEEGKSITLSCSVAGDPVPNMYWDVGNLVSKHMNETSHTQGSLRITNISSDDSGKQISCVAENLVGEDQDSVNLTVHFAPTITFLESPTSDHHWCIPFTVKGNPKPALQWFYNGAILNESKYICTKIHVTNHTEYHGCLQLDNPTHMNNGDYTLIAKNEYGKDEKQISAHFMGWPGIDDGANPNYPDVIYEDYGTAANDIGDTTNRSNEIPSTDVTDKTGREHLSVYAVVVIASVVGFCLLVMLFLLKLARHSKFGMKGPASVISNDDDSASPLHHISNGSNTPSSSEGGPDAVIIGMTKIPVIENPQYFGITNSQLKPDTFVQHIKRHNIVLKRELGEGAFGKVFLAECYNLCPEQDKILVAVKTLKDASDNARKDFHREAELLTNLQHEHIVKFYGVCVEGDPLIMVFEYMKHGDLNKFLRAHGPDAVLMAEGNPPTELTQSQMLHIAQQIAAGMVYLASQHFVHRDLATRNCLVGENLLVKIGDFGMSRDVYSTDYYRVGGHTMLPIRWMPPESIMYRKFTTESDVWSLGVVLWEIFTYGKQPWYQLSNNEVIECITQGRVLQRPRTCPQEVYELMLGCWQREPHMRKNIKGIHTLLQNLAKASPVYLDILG

[12] = biological target: Cyclin-dependent kinase 1/cyclin B1 (Homo sapiens) (UniProt P06493+P14635); experiment: Inhibition of CDK1/cyclin B at 1 uM; format: protein-complex assay
Cyclin-dependent kinase 1/cyclin B1 (Homo sapiens), sequence (P06493 whole entry, looked up): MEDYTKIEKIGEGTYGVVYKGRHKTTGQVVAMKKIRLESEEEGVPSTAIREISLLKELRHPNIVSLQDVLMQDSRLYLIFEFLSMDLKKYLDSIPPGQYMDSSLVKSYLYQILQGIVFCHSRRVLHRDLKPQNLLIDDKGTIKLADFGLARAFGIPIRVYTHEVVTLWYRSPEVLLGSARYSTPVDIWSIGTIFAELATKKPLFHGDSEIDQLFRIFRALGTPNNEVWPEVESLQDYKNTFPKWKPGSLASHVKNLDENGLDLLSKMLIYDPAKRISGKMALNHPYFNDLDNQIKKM
Cyclin-dependent kinase 1/cyclin B1 (Homo sapiens), sequence (P14635 whole entry, looked up): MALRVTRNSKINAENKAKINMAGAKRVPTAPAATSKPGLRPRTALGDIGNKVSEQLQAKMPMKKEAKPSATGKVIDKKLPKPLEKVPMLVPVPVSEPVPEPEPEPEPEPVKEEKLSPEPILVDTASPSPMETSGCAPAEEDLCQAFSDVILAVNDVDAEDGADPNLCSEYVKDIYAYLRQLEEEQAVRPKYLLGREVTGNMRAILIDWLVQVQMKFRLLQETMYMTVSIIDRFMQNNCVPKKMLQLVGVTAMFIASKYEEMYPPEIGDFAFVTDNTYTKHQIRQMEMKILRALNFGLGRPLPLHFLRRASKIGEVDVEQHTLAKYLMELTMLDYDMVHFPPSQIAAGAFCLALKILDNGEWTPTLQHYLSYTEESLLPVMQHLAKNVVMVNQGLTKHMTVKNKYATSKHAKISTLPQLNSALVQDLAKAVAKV

[13] = biological target: Ribosomal protein S6 kinase alpha-4 (Homo sapiens) (UniProt O75676); experiment: Inhibition of RPS6KA4 at 1 uM
[14] = biological target: Tyrosine-protein kinase SYK (Homo sapiens) (UniProt P43405); experiment: Inhibition of SYK at 1 uM
[15] = biological target: RAC-alpha serine/threonine-protein kinase (Homo sapiens, UniProt P31749); experiment: Inhibition of AKT-1 at 1 uM
[16] = test system: MDA-MB-231; experiment: Cytotoxicity against human MDA231 cells at 10 uM; format: functional, cell-based
[17] = biological target: Protein kinase C alpha type (Homo sapiens, UniProt P17252); experiment: Inhibition of PKCalpha at 1 uM
[18] = biological target: Tyrosine-protein kinase ABL1 (Homo sapiens) (UniProt P00519); experiment: Inhibition of ABL1 at 1 uM
Tyrosine-protein kinase ABL1 (Homo sapiens), sequence (P00519 whole entry): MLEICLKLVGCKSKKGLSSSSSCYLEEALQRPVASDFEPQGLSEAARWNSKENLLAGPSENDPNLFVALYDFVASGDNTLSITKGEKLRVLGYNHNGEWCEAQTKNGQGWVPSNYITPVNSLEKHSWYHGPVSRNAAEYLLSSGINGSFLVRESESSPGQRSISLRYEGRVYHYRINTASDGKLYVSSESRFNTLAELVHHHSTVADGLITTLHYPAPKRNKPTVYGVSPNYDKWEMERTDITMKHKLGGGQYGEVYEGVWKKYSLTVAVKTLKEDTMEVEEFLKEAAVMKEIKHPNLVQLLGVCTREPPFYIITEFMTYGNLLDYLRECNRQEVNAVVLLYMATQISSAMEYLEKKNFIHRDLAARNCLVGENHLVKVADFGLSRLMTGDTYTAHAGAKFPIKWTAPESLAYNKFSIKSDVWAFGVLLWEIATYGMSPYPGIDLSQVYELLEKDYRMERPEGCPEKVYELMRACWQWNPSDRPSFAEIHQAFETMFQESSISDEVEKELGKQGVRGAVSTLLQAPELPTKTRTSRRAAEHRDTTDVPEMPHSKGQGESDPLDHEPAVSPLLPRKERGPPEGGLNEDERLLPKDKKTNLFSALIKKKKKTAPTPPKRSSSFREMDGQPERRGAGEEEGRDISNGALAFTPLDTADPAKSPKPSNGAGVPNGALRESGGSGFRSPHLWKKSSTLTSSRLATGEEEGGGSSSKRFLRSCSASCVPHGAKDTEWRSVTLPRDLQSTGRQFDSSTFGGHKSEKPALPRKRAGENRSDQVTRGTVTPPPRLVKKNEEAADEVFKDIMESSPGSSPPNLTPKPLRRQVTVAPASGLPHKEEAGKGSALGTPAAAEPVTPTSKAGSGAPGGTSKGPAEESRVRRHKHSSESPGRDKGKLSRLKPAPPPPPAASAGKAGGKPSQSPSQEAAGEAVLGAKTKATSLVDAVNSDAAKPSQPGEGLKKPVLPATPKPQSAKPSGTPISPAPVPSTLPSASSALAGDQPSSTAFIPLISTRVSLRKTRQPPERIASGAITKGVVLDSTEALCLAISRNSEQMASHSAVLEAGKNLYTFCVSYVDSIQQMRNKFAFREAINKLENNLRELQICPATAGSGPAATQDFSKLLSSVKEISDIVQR

[19] = test system: MDA-MB-231; experiment: Inhibition of free radical generation in human MDA231 cells by CM-H2DCFDA based fluorometric analysis; format: functional, cell-based

Q: Which inhibition [1] does the source give for `O=C(CCCn1[se]c2ccccc2c1=O)N[C@@H]1O[C@H](CO)[C@@H](O)[C@H](O)[C@H]1O` here?
A: Its inhibition is 0%.

Q: And the inhibition [2]?
A: The inhibition was 0%.

Q: What about the inhibition [3] of the same compound?
A: Its inhibition is 0%.

Q: What about the inhibition [4] of the same compound?
A: The inhibition was 0%.

Q: What about the inhibition [5] of the same compound?
A: The inhibition was 0%.

Q: What about the inhibition [6] of the same compound?
A: Its inhibition is 0%.

Q: What about the inhibition [7] of the same compound?
A: Its inhibition is 0%.

Q: What about the inhibition [8] of the same compound?
A: The inhibition was “inactive”.

Q: And the inhibition [9]?
A: The inhibition was 0%.

Q: What about the inhibition [10] of the same compound?
A: The inhibition was 0%.

Q: What about the inhibition [11] of the same compound?
A: Its inhibition is 0%.

Q: And the inhibition [12]?
A: Its inhibition is 0%.

Q: And the inhibition [13]?
A: Its inhibition is 0%.

Q: And the inhibition [14]?
A: The inhibition was 0%.

Q: What about the inhibition [15] of the same compound?
A: The inhibition was 60%.

Q: And the Activity [16]?
A: Its Activity is “inactive”.

Q: And the inhibition [17]?
A: Its inhibition is 74%.

Q: What about the inhibition [18] of the same compound?
A: The inhibition was 0%.

Q: What about the inhibition [19] of the same compound?
A: Its inhibition is “inactive”.

Q: For `O=c1c2ccccc2[se]n1-c1ccccc1` [EBSELEN], which inhibition [1] is on record?
A: The inhibition was 0%.

Q: What about the inhibition [2] of the same compound?
A: Its inhibition is 0%.

Q: What about the inhibition [3] of the same compound?
A: The inhibition was 0%.

Q: What about the inhibition [4] of the same compound?
A: Its inhibition is 0%.

Q: And the inhibition [5]?
A: Its inhibition is 0%.

Q: What about the inhibition [6] of the same compound?
A: Its inhibition is 0%.

Q: And the inhibition [7]?
A: The inhibition was 0%.

Q: And the inhibition [9]?
A: The inhibition was 0%.

Q: And the inhibition [10]?
A: The inhibition was 0%.

Q: And the inhibition [11]?
A: The inhibition was 0%.

Q: What about the inhibition [12] of the same compound?
A: Its inhibition is 0%.

Q: What about the inhibition [13] of the same compound?
A: Its inhibition is 0%.

Q: And the inhibition [14]?
A: Its inhibition is 0%.

Q: And the inhibition [15]?
A: The inhibition was 22%.

Q: What about the inhibition [17] of the same compound?
A: The inhibition was 25%.

Q: What about the inhibition [18] of the same compound?
A: The inhibition was 0%.

Q: What does the source list for `CC(=O)OC[C@H]1O[C@@H](NC(=O)CCCn2[se]c3ccccc3c2=O)[C@H](OC(C)=O)[C@@H](OC(C)=O)[C@@H]1OC(C)=O`?
A: inhibition [1]: 0%; inhibition [2]: 0%; inhibition [3]: 0%; inhibition [4]: 0%; inhibition [5]: 0%; inhibition [6]: 0%; inhibition [7]: 0%; inhibition [8]: inactive; inhibition [9]: 0%; inhibition [10]: 0%; inhibition [11]: 0%; inhibition [12]: 0%; inhibition [13]: 0%; inhibition [14]: 0%; inhibition [15]: 67%; Activity [16]: inactive; inhibition [17]: 77%; inhibition [18]: 0%; inhibition [19]: inactive

Q: For `CC(=O)OC[C@H]1O[C@@H](O[C@H]2[C@H](OC(C)=O)[C@@H](OC(C)=O)[C@H](n3[se]c4ccccc4c3=O)O[C@@H]2COC(C)=O)[C@H](OC(C)=O)[C@@H](OC(C)=O)[C@H]1OC(C)=O`, which inhibition [1] is on record?
A: The inhibition was 0%.

Q: And the inhibition [2]?
A: Its inhibition is 0%.

Q: What about the inhibition [3] of the same compound?
A: The inhibition was 0%.

Q: And the inhibition [4]?
A: Its inhibition is 0%.

Q: And the inhibition [5]?
A: The inhibition was 0%.

Q: What about the inhibition [6] of the same compound?
A: The inhibition was 0%.

Q: And the inhibition [7]?
A: The inhibition was 0%.

Q: What about the inhibition [8] of the same compound?
A: Its inhibition is “inactive”.

Q: What about the inhibition [9] of the same compound?
A: The inhibition was 0%.

Q: What about the inhibition [10] of the same compound?
A: The inhibition was 1%.

Q: And the inhibition [11]?
A: The inhibition was 0%.

Q: What about the inhibition [12] of the same compound?
A: Its inhibition is 0%.

Q: And the inhibition [13]?
A: Its inhibition is 0%.

Q: What about the inhibition [14] of the same compound?
A: Its inhibition is 0%.

Q: What about the inhibition [15] of the same compound?
A: Its inhibition is 63%.

Q: What about the Activity [16] of the same compound?
A: Its Activity is “inactive”.

Q: And the inhibition [17]?
A: The inhibition was 95%.

Q: And the inhibition [18]?
A: The inhibition was 0%.

Q: What about the inhibition [19] of the same compound?
A: Its inhibition is “inactive”.

— ChEMBL document CHEMBL1938284, “Synthesis and biological activity of novel organoselenium derivatives targeting multiple kinases and capable of inhibiting cancer progression to metastases” (Eur J Med Chem, 2012)
